Measured values as given in ChEMBL document CHEMBL3045441, “Microwave-assisted CAN-catalyzed solvent-free synthesis of N-allyl quinolone-based pyrano[4,3-b]chromene and benzopyrano[3,2-c]chromene derivatives and their antimicrobial activity” (2013).
Converted amounts (≈) assume the structure as drawn.

Legend:
Assay type in all cases: functional
Staphylococcus aureus = assay: Antimicrobial activity against Staphylococcus aureus MTCC 96 assessed as growth inhibition after 24 hr by NCCLS broth microdilution method; settings: MTCC 96, 24 h
Streptococcus pyogenes = assay: Antimicrobial activity against Streptococcus pyogenes MTCC 442 assessed as growth inhibition after 24 hr by NCCLS broth microdilution method; settings: MTCC 442, 24 h
Escherichia coli = assay: Antimicrobial activity against Escherichia coli MTCC 443 assessed as growth inhibition after 24 hr by NCCLS broth microdilution method; settings: MTCC 443, 24 h
Aspergillus clavatus = assay: Antimicrobial activity against Aspergillus clavatus MTCC 1323 assessed as growth inhibition after 48 hr by NCCLS broth microdilution method
Pseudomonas aeruginosa = assay: Antimicrobial activity against Pseudomonas aeruginosa MTCC 1688 assessed as growth inhibition after 24 hr by NCCLS broth microdilution method; settings: MTCC 1688, 24 h
Aspergillus niger = assay: Antimicrobial activity against Aspergillus niger MTCC 282 assessed as growth inhibition after 48 hr by NCCLS broth microdilution method
Candida albicans = assay: Antimicrobial activity against Candida albicans MTCC 227 assessed as growth inhibition after 48 hr by NCCLS broth microdilution method

Row | Compound | MIC (Staphylococcus aureus) [µg/mL] | MIC (Streptococcus pyogenes) [µg/mL] | MIC (Escherichia coli) [µg/mL] | MIC (Aspergillus clavatus; MTCC 1323, 48 h) [µg/mL] | MIC (Pseudomonas aeruginosa) [µg/mL] | MIC (Aspergillus niger; MTCC 282, 48 h) [µg/mL] | MIC (Candida albicans; MTCC 227, 48 h) [µg/mL] | MIC (Aspergillus clavatus) [µg/mL] | MIC (Aspergillus niger) [µg/mL] | MIC (Candida albicans) [µg/mL]
1 | CC1(C)S[C@@H]2[C@H](NC(=O)[C@H](N)c3ccccc3)C(=O)N2[C@H]1C(=O)O [AMPICILLIN] | 250 (≈ 715 µM) | 100 (≈ 286 µM) | 100 (≈ 286 µM) | – | – | – | – | – | – | –
2 | C=CCn1c(=O)c(C2C3=C(CC(C)(C)CC3=O)Oc3cc(C)oc(=O)c32)cc2ccccc21 (stereo not drawn) | 500 (≈ 1130 µM) | 250 (≈ 564 µM) | 100 (≈ 225 µM) | 500 (≈ 1130 µM) | 62.5 (≈ 141 µM) | 500 (≈ 1130 µM) | 500 (≈ 1130 µM) | – | – | –
3 | C=CCn1c(=O)c(C2C3=C(CC(C)(C)CC3=O)Oc3cc(C)oc(=O)c32)cc2cc(OC)ccc21 (stereo not drawn) | 250 (≈ 528 µM) | 250 (≈ 528 µM) | 500 (≈ 1060 µM) | 1000 (≈ 2110 µM) | 500 (≈ 1060 µM) | 1000 (≈ 2110 µM) | 500 (≈ 1060 µM) | – | – | –
4 | O=C(N[C@H](CO)[C@H](O)c1ccc([N+](=O)[O-])cc1)C(Cl)Cl [CHLORAMPHENICOL] | 50 (≈ 155 µM) | 50 (≈ 155 µM) | 50 (≈ 155 µM) | – | 50 (≈ 155 µM) | – | – | – | – | –
5 | C=CCn1c(=O)c(C2C3=C(CC(C)(C)CC3=O)Oc3c2c(=O)oc2ccccc32)cc2cc(Cl)ccc21 (stereo not drawn) | 62.5 (≈ 122 µM) | 100 (≈ 195 µM) | 100 (≈ 195 µM) | 1000 (≈ 1950 µM) | 100 (≈ 195 µM) | 1000 (≈ 1950 µM) | 1000 (≈ 1950 µM) | – | – | –
6 | C=CCn1c(=O)c(C2C3=C(CCCC3=O)Oc3c2c(=O)oc2ccccc32)cc2cc(Cl)ccc21 (stereo not drawn) | 125 (≈ 257 µM) | 125 (≈ 257 µM) | 200 (≈ 412 µM) | 1000 (≈ 2060 µM) | 100 (≈ 206 µM) | 1000 (≈ 2060 µM) | 1000 (≈ 2060 µM) | – | – | –
7 | C=CCn1c(=O)c(C2C3=C(CC(C)(C)CC3=O)Oc3cc(C)oc(=O)c32)cc2cc(Cl)ccc21 (stereo not drawn) | 125 (≈ 262 µM) | 125 (≈ 262 µM) | 250 (≈ 523 µM) | > 1000 | 500 (≈ 1050 µM) | > 1000 | 1000 (≈ 2090 µM) | – | – | –
8 | COC1=CC(=O)C[C@@H](C)[C@]12Oc1c(Cl)c(OC)cc(OC)c1C2=O [GRISEOFULVIN] | – | – | – | 100 (≈ 283 µM) | – | 100 (≈ 283 µM) | 500 (≈ 1420 µM) | – | – | –
9 | C=CCn1c(=O)c(C2C3=C(CCCC3=O)Oc3cc(C)oc(=O)c32)cc2cc(Cl)ccc21 (stereo not drawn) | 100 (≈ 222 µM) | 100 (≈ 222 µM) | 500 (≈ 1110 µM) | 1000 (≈ 2220 µM) | 500 (≈ 1110 µM) | 500 (≈ 1110 µM) | 1000 (≈ 2220 µM) | – | – | –
10 | C=CCn1c(=O)c(C2C3=C(CCCC3=O)Oc3c2c(=O)oc2ccccc32)cc2ccccc21 (stereo not drawn) | 200 (≈ 443 µM) | 200 (≈ 443 µM) | 62.5 (≈ 138 µM) | > 1000 | 100 (≈ 221 µM) | > 1000 | 500 (≈ 1110 µM) | – | – | –
11 | C=CCn1c(=O)c(C2C3=C(CC(C)(C)CC3=O)Oc3c2c(=O)oc2ccccc32)cc2cc(OC)ccc21 (stereo not drawn) | 125 (≈ 245 µM) | 125 (≈ 245 µM) | 250 (≈ 491 µM) | > 1000 | 125 (≈ 245 µM) | > 1000 | 500 (≈ 981 µM) | – | – | –
12 | C=CCn1c(=O)c(C2C3=C(CCCC3=O)Oc3cc(C)oc(=O)c32)cc2ccccc21 (stereo not drawn) | 250 (≈ 602 µM) | 250 (≈ 602 µM) | 125 (≈ 301 µM) | 200 (≈ 481 µM) | 200 (≈ 481 µM) | 200 (≈ 481 µM) | 500 (≈ 1200 µM) | – | – | –
13 | C=CCn1c(=O)c(C2C3=C(CC(C)(C)CC3=O)Oc3cc(C)oc(=O)c32)cc2cc(C)ccc21 (stereo not drawn) | 250 (≈ 546 µM) | 125 (≈ 273 µM) | 500 (≈ 1090 µM) | 250 (≈ 546 µM) | 125 (≈ 273 µM) | 250 (≈ 546 µM) | 1000 (≈ 2190 µM) | – | – | –
14 | C=CCn1c(=O)c(C2C3=C(CCCC3=O)Oc3cc(C)oc(=O)c32)cc2cc(OC)ccc21 (stereo not drawn) | 200 (≈ 449 µM) | 200 (≈ 449 µM) | 125 (≈ 281 µM) | 1000 (≈ 2240 µM) | 250 (≈ 561 µM) | 1000 (≈ 2240 µM) | 500 (≈ 1120 µM) | – | – | –
15 | O=C(O)c1cn(C2CC2)c2cc(N3CCNCC3)c(F)cc2c1=O [CIPROFLOXACIN] | 50 (≈ 151 µM) | 50 (≈ 151 µM) | 25 (≈ 75.4 µM) | – | – | – | – | – | – | –
16 | C=CCn1c(=O)c(C2C3=C(CC(C)(C)CC3=O)Oc3c2c(=O)oc2ccccc32)cc2cc(C)ccc21 (stereo not drawn) | 125 (≈ 253 µM) | 250 (≈ 507 µM) | 200 (≈ 405 µM) | 500 (≈ 1010 µM) | 50 (≈ 101 µM) | 500 (≈ 1010 µM) | 500 (≈ 1010 µM) | – | – | –
17 | C=CCn1c(=O)c(C2C3=C(CC(C)(C)CC3=O)Oc3c2c(=O)oc2ccccc32)cc2ccccc21 (stereo not drawn) | 250 (≈ 521 µM) | 500 (≈ 1040 µM) | 500 (≈ 1040 µM) | 1000 (≈ 2090 µM) | 250 (≈ 521 µM) | 1000 (≈ 2090 µM) | 250 (≈ 521 µM) | – | – | –
18 | C=CCn1c(=O)c(C2C3=C(CCCC3=O)Oc3c2c(=O)oc2ccccc32)cc2cc(C)ccc21 (stereo not drawn) | 250 (≈ 537 µM) | 250 (≈ 537 µM) | 20 (≈ 43 µM) | 500 (≈ 1070 µM) | 100 (≈ 215 µM) | 500 (≈ 1070 µM) | 250 (≈ 537 µM) | – | – | –
19 | NYSTATIN | – | – | – | – | – | – | – | 100 | 100 | 100
20 | C=CCn1c(=O)c(C2C3=C(CCCC3=O)Oc3c2c(=O)oc2ccccc32)cc2cc(OC)ccc21 (stereo not drawn) | 62.5 (≈ 130 µM) | 500 (≈ 1040 µM) | 100 (≈ 208 µM) | 1000 (≈ 2080 µM) | 62.5 (≈ 130 µM) | 1000 (≈ 2080 µM) | 500 (≈ 1040 µM) | – | – | –
21 | C=CCn1c(=O)c(C2C3=C(CCCC3=O)Oc3cc(C)oc(=O)c32)cc2cc(C)ccc21 (stereo not drawn) | 500 (≈ 1160 µM) | 500 (≈ 1160 µM) | 125 (≈ 291 µM) | 1000 (≈ 2330 µM) | 250 (≈ 582 µM) | 500 (≈ 1160 µM) | 1000 (≈ 2330 µM) | – | – | –
